Laboratory results: patent US6559139B1, “Combination chemotherapy” (University of Pittsburgh of the Commonwealth System of …, priority 1997, dated 2003)

How the values were obtained:
SCCVII/SF cells [1] = assay: in vitro clonogenic assay; assay type: cell-based, murine; details: for enhancement of clonogenic cell kill: p<0.001 ANOVA
Protocol: The in vitro cytotoxicity of drug on tumor cells was determined via the in vitro clonogenic assay (McElwain et al., Mol. Cell. Diff., 3, 31-50 (1995)) with minor modifications as described herein. Briefly, murine SCCVII/SF cells were pre-treated with either 2 nM or 4 nM 1,25D3 or Ro23-7553. […] After 48 hours incubation with 1,25D3 or Ro23-7553, cells were treated for 2 hours with varying concentrations of cytotoxic agent, washed with RPMI 1640 plus FCS, and plated in various dilutions in 6-well tissue culture plates. Following a 7 day incubation at 37° C. in 5% CO2, monolayers were washed with saline, fixed with 100% methanol, and stained with 10% Giemsa; colonies were counted under light microscopy. The surviving fraction was calculated by dividing the cloning efficiency of treated cells by the cloning efficiency of untreated controls.

SCCVII/SF tumor [2] = assay: in vivo excision clonogenic tumor cell survival assay; design: species or system C3H/HeJ mice; details: for enhancement of clonogenic cell kill: p<0.001 ANOVA
Protocol: The effect of 1,25D3 or Ro23-7553 alone and/or in combination with various cytotoxic agents on tumor cells in vivo was determined by a modification of the in vivo excision clonogenic tumor cell survival assay (Johnson et al., Cancer Chemother. Pharmacol., 32, 339-46 (1993)). Briefly, SCCVII/SF tumor bearing animals at 14 days post implantation were treated i.p. for 3 days with 1,25D3 or Ro23-7553 at either 0.5 mg/kg body weight/day or at varying doses of 0.03125-0.5 mg/kg body weight/day. […] After 24 hours, aliquots of minced tumor were enzymatically dissociated for 60 min at room temperature with a mixture of type I collagenase (37.5 mg/ml), DNAse (55 mg/ml) and EDTA (1%). Viable tumor cells (determined by trypan blue staining) were then plated at various dilutions. After 7 days incubation, colonies were counted, and numbers of clonogenic cells per gram of tumor were counted. The mean±standard deviation (SD) cell yield, cloning efficiency, and number of clonogenic cells for control (no treatment) tumors (n=40) averaged 139.4±38.2×10^6 viable tumor cells/g tumor, 27.0±0.56%, and 37.5±13.3×10^6 clonogenic tumor cells/g tumor, respectively. The surviving fraction per gram of tumor is defined as the number of clonogenic tumor cells per gram of treated tumor divided by the number of clonogenic tumor cells per gram of control (untreated) tumor. This assay is an accurate measure of in vivo anti-tumor activity; a surviving fraction less than 0.1 correlates with an actual decrease in tumor volume and an increase in tumor regrowth delay (Braunschweiger et al., Cancer Res., 48, 6011-16 (1988); Braunschweiger et al., Cancer Res., 51, 5454-60 (1991)).

SCCVII/SF tumor [3] = assay: tumor regrowth assay (delay of tumor growth); assay type: in vivo, C3H/HeJ mice; details: for fractional tumor volume: vs either agent alone; for Tumor Regrowth Delay: mean±SD of the difference in time for treated and control tumors to reach 4× pretreatment size, Ro23-7553 continuous, cisplatin 6 mg/kg i.p.
Protocol: SCCVII/SF tumor cells (5×10^5) were inoculated s.c. into the flank of the leg of C3H/HeJ mice. On day 9 post implantation, as the tumors were palpable (approximately 5×5 mm), animals were randomized for treatment with low dose i.p. […] After 7 days, 6 mg/kg body weight cytotoxic agent was injected i.p. Control animals received either treatment alone or no treatment. Control (no treatment) animals were given injection of vehicle (PBS) alone or sham pumps were implanted. Tumor growth was assessed by measuring the tumor diameter with calipers three times weekly. […] Post-treatment volumes were expressed as a fraction of pretreatment volume at the time of initial treatment. Tumor regrowth delay was calculated as the mean±standard deviation of the difference in time for treated and control tumor volumes to reach 4 times the pretreatment volume.

[4] = hypercalcemia in treated SCCVII/SF tumor-bearing animals; assay type: in vivo, C3H/HeJ mice
SCCVII/SF cells [5] = details: 24 hr, 48 hr and 7 day incubation times; cited from earlier work
[6] = clinical carboplatin / 1,25D3 schedule: carboplatin AUC and myelosuppression; assay type: in vivo, human; details: for mean AUC of carboplatin: dose calculated to achieve AUC=5, ±1.3
Protocol: Patients with malignant tumors were subject to a treatment regimen involving carboplatin and 1,25D3, but 48 hours prior to treatment, each patient was placed on a low calcium diet (250-300 mg/48 hr) and maintained on that diet for at least 7 days.
According to this regimen, each cycle lasts four weeks. For successive cycles, the dosage of 1,25D3 is increased by 30%. For the first two cycles, the patients were divided into two groups as follows:
Group 1. On day 1, this group of patients was given carboplatin (intravenously as a 30-minute infusion in 100 ml of carrier) at a dose calculated to achieve AUC=5. 24 hours later, a plasma sample was taken to determine carboplatin AUC, and the patients were placed on a three-day regimen of subcutaneous 1,25D3 per the schedule indicated in Table 2.
Group 2. On day 1, this group of patients was placed on a three-day regimen of subcutaneous 1,25D3. On day 3, the patients were given carboplatin at a dose calculated to achieve AUC=5. 24 hours later, a plasma sample was taken to determine carboplatin AUC.
Following the first cycle, the groups switched between pretreatment and post treatment. For the third and subsequent cycles in this treatment, the patients were placed on a three-day regimen of subcutaneous 1,25D3. On day 3, the patients were given carboplatin. at a dose calculated to achieve AUC=5. 24 hours later, a plasma sample was taken to determine carboplatin AUC.
Following the first two cycles, patients were assessed to determine the effect on carboplatin AUC by pretreatment vs. post treatment with 1,25D3.

[7] = serum calcium levels in normal mice treated with 1,25D3 with or without zoledronate
Protocol: Normal C3H/HeJ mice were pretreated with 10 μg/kg body weight zoledronate and then treated with 0.25 μg 1,25D3 once a day for three days. Control animals received 1,25D3 alone, and one group of animals received only zoledronate. Following the last 1,25D3 treatment, blood was collected at 0, 24 and 48 hours from each mouse, and the serum calcium levels were measured.

MAPK = assay: Western Blot of phosphorylated MAPK and MAPK in SCC cells; assay type: cell-based; details: 10 nM 1,25D3, vs untreated cells
Protocol: (§1) SCC cells were treated in vitro with 10 nM 1,25D3, and untreated cells served as a control. The level of phosphorylated MAPK was assessed at 24 and 48 hours post treatment. Using Western Blot analysis, the amounts of MAPK, MEK (the kinase responsible for phosphorylating MAPK), MKP-1 (a MAPK-specific phosphatase), and growth factor receptors (EGF, PDGF, and IGF1 growth factor receptors) were assessed as well. Additionally, the activity level of MEK was assessed by quantitative in vitro kinase assays.

MEK [8] = assay: Western Blot of MEK protein in SCC cells; assay type: cell-based; details: 10 nM 1,25D3; vs untreated cells
Protocol: as §1

MEK [9] = assay: quantitative in vitro kinase assay of MEK activity; assay type: cell-based; details: 10 nM 1,25D3; vs untreated cells
Protocol: as §1

[10] = system: MKP-1 (a MAPK-specific phosphatase); assay: Western Blot of MKP-1 in SCC cells; assay type: cell-based; details: 10 nM 1,25D3; vs untreated cells
Protocol: as §1

[11] = system: EGF, PDGF, and IGF1 growth factor receptors; assay: Western Blot of growth factor receptors in SCC cells; assay type: cell-based; details: 10 nM 1,25D3; vs untreated cells
Protocol: as §1

C=C1/C(=C\C=C2/CCC[C@]3(C)C([C@H](C)CC#CC(C)(C)O)=CC[C@@H]23)C[C@@H](O)C[C@@H]1O [Ro23-7553, 1,25-dihydroxy-16-ene-23-yne-cholecalciferol]
enhancement of clonogenic cell kill (SCCVII/SF cells [1]; pretreatment with 2 nM and 4 nM Ro23-7553, then 0.2-0.8 μg/ml cisplatin, vs cisplatin alone or concurrent administration): significantly enhanced clonogenic cell kill
enhancement of clonogenic cell kill (SCCVII/SF tumor [2]; Ro23-7553 0.5 mg/kg body weight/day i.p. 3 days, varying doses of cisplatin on day 3, vs cisplatin or Ro23-7553 alone): significant enhancement of clonogenic cell kill
enhancement of cisplatin-mediated tumor cell kill (SCCVII/SF tumor [2]; Ro23-7553 0.03125-0.5 mg/kg body weight/day 3 days, cisplatin 6 mg/kg on day 3, vs either alone, p<0.01 ANOVA): significantly enhancing cisplatin-mediated tumor cell kill even at the lowest doses tested
fractional tumor volume (SCCVII/SF tumor [3]; Ro23-7553 administered continuously, then cisplatin 6 mg/kg i.p., p<0.001 ANOVA): significant decrease in fractional tumor volume
Tumor Regrowth Delay (SCCVII/SF tumor [3]): 1.8 ± 0.8
hypercalcemia ([4]; any of the Ro23-7553 doses (0.03125-0.5 mg/kg/day, 3 days) with cisplatin): No animals in either experimental approach became hypercalcemic
anti-proliferative effects (SCCVII/SF cells [5]): anti-proliferative effects are observed

N.N.O=C([O-])C1(C(=O)[O-])CCC1.[Pt+2] [carboplatin]
mean AUC of carboplatin ([6]; carboplatin D1): 7800 ng·h/mL
mean AUC of carboplatin ([6]; carboplatin D3): 6700 ng·h/mL
myleosuppression ([6]; carboplatin followed by adjunctive 1,25D3, each patient): consistently less
AUC of carboplatin when pretreated with 1,25D3 vs carboplatin given first ([6]; each patient, first two cycles): higher in each patient

O=P(O)(O)C(O)(Cn1ccnc1)P(=O)(O)O [zoledronate]
dehydration, piloerection, and cachexia attributable to hypercalcemia ([7]; vs control animals (1,25D3 alone)): less dehydration, piloerection, and cachexia

C=C1/C(=C\C=C2/CCC[C@]3(C)[C@@H]([C@H](C)CCCC(C)(C)O)CC[C@@H]23)C[C@@H](O)C[C@@H]1O [1,25D3, 1,25-dihydroxycholecalciferol]
enhancement of clonogenic cell kill over paclitaxel alone (SCCVII/SF cells [1]; concurrent administration of 1,25D3 and paclitaxel): did not result in an enhancement of clonogenic cell kill
enhancement of clonogenic cell kill (SCCVII/SF cells [1]; pretreatment with 2 nM 1,25D3 for 48 hours, then carboplatin, vs carboplatin alone or concurrent): significantly enhanced clonogenic cell kill
enhancement of clonogenic cell kill (SCCVII/SF cells [1]; pretreatment with 1,25D3, then paclitaxel): significantly enhanced clonogenic cell kill
enhancement of clonogenic cell kill (SCCVII/SF tumor [2]; 1,25D3 0.2 μg/day i.p. 3 days, varying doses of paclitaxel on day 3, vs paclitaxel alone): significant enhancement of clonogenic cell kill
enhancement of clonogenic cell kill (SCCVII/SF tumor [2]; 1,25D3 0.5 mg/kg body weight/day i.p. 3 days, carboplatin 25-100 mg/kg on day 3, vs either alone): significant enhancement of clonogenic cell kill
enhancement of clonogenic cell kill (SCCVII/SF tumor [2]; 1,25D3 varying doses i.p. 3 days, carboplatin 50 mg/kg on day 3, vs carboplatin alone): significant enhancement of clonogenic cell even at the lowest doses of 1,25D3
fractional tumor volume (SCCVII/SF tumor [3]; 0.2 μg/mouse 1,25D3 continuously for two to eight days, then paclitaxel 40 mg/kg i.p.): significant decrease in fractional tumor volume
hypercalcemia ([4]; 1,25D3 0.2 μg/day 3 days with paclitaxel): No animals became hypercalcemic
hypercalcemia ([4]; any of the 1,25D3 doses tested, with carboplatin 50 mg/kg): No animals became hypercalcemic
level of phosphorylated MAPK (MAPK; 24 and 48 hours): less phosphorylated MAPK
amount of MAPK protein (MAPK): not affected
amount of MEK protein (MEK [8]): slightly less MEK protein
MEK activity profile (MEK [9]): not significantly different
amount of MKP-1 [10]: higher amounts of MKP-1
amounts of EGF, PDGF, and IGF1 growth factor receptors [11]: significantly higher amounts
serum calcium levels ([7]; 24 hours after last 1,25D3 treatment (0.25 μg once a day, three days)): 17.2 ± 1.1 mg/dL
serum calcium levels ([7]; 48 hours after last 1,25D3 treatment (0.25 μg once a day, three days)): 16.5 ± 1.1 mg/dL
anti-proliferative effects (SCCVII/SF cells [5]): anti-proliferative effects are observed

N.N.[Cl][Pt][Cl] [Cisplatin, cisplatin]
Tumor Regrowth Delay (SCCVII/SF tumor [3]): 4.4 ± 0.3
